These results are taken from US10335503B2, “Compound that specifically binds to AMPA receptor” (Public University Corporation Yokohama City University, priority 2015, dated 2019).

SMILES strings stand for the structures.

Holding throughout (details): K-2 at 1 × 10^−7 mol/L
For one assay, the target named is Adenosine A1 (Homo sapiens, UniProt P30542). In words: Receptor binding panel: Adenosine A1.
For the next assay, the target named is α1B-Adrenergic (Homo sapiens, UniProt P35368). In words: Receptor binding panel: α1B-Adrenergic.
The target of another assay is α2B-Adrenergic (Homo sapiens, UniProt P18089). In words: Receptor binding panel: α2B-Adrenergic.
The target in a further assay is Dopamine D2 short (Homo sapiens, UniProt P14416). Nature of the assay: Receptor binding panel: Dopamine D2 short.
The target of a further assay is Dopamine transporter (Homo sapiens, UniProt Q01959). Nature of the assay: Receptor binding panel: Dopamine transporter.
For the next assay, the target named is GABA B (Homo sapiens, UniProt Q9UBS5). Nature of the assay: Receptor binding panel: GABA B.
For the next assay, the system named is Glutamate (Kainate). Nature of the assay: Receptor binding panel: Glutamate (Kainate).
Assay [1] relates to Glutamate (NMDA agonist site). Nature of the assay: Receptor binding panel: Glutamate (NMDA agonist site).
Assay [2] relates to Glycine (Strychnine sensitive). Nature of the assay: Receptor binding panel: Glycine (Strychnine sensitive).
Another assay deals with Histamine H1 (Homo sapiens, UniProt P35367). In words: Receptor binding panel: Histamine H1.
For a further assay, the system named is K Channel KATP. In words: Receptor binding panel: K Channel KATP.
For another assay, the system named is Leukotriene B4. In words: Receptor binding panel: Leukotriene B4.
The target in a further assay is Muscarinic M2 (Homo sapiens, UniProt P08172). In words: Receptor binding panel: Muscarinic M2.
For a further assay, the target named is Neurokinin NK2 (Homo sapiens, UniProt P21452). Nature of the assay: Receptor binding panel: Neurokinin NK2.
The target of another assay is Serotonin 5HT2A (Homo sapiens, UniProt P28223). In words: Receptor binding panel: Serotonin 5HT2A.
A further assay deals with Serotonin 5HT3 (Homo sapiens, UniProt P46098). Nature of the assay: Receptor binding panel: Serotonin 5HT3.
The next assay concerns the target Sigma σ1 (Homo sapiens, UniProt Q99720). In words: Receptor binding panel: Sigma σ1.
Another assay concerns the target Sigma σ2 (Homo sapiens, UniProt Q5BJF2). In words: Receptor binding panel: Sigma σ2.
The next assay has as its target Vasopressin V1B (Homo sapiens, UniProt P47901). In words: Receptor binding panel: Vasopressin V1B.

Sequence of Neurokinin NK2 (P21452 whole entry): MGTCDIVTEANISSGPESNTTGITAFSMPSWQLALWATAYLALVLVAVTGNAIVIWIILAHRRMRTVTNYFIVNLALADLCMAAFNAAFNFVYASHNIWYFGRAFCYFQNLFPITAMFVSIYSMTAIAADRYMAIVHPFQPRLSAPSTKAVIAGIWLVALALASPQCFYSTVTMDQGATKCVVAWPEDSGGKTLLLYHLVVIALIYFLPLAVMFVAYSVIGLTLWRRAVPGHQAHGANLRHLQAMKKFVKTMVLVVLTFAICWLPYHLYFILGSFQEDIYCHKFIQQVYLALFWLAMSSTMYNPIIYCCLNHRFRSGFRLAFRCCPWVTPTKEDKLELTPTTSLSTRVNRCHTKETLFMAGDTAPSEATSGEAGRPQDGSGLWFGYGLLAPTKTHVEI
Sequence of Muscarinic M2 (P08172 whole entry): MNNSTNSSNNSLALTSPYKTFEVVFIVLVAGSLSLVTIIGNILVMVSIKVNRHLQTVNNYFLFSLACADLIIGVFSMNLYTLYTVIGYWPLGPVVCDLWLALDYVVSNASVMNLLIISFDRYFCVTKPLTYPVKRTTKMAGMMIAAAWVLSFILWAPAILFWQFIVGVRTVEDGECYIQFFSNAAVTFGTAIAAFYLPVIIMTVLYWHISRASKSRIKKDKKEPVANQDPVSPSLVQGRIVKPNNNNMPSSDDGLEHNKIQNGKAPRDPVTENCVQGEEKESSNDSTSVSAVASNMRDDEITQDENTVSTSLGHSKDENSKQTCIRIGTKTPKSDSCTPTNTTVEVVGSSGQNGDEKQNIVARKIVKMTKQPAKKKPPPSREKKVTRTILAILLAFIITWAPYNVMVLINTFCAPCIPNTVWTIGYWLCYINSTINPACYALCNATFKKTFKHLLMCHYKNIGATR
Sequence of Adenosine A1 (P30542 whole entry): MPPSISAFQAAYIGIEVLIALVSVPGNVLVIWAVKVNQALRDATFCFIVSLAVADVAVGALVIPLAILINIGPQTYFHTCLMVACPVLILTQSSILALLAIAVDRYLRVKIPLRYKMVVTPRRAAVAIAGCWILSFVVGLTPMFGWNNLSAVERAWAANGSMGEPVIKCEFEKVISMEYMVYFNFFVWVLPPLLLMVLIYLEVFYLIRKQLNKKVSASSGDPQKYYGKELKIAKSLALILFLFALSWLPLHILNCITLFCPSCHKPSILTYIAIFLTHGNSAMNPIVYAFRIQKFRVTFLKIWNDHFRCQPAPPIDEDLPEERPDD
Sequence of Serotonin 5HT2A (P28223 whole entry): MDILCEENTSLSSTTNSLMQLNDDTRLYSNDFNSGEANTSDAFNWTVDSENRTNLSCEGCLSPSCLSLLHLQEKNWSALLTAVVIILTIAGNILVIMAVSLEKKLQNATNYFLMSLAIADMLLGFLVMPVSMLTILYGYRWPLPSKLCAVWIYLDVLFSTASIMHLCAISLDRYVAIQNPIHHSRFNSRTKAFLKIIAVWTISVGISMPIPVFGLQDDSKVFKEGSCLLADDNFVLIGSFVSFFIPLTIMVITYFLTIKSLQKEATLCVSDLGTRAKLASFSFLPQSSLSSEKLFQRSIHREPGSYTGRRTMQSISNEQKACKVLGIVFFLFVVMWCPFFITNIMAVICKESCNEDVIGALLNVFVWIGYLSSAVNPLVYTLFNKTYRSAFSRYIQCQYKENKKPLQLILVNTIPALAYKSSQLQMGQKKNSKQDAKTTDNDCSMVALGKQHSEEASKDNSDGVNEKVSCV
Sequence of Sigma σ1 (Q99720 whole entry): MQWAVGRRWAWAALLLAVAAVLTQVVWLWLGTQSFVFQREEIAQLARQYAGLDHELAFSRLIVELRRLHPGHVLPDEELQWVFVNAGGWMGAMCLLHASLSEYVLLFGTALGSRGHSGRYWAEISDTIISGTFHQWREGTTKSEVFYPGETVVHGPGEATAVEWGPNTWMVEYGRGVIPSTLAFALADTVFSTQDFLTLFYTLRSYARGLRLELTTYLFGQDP
Sequence of α1B-Adrenergic (P35368 whole entry): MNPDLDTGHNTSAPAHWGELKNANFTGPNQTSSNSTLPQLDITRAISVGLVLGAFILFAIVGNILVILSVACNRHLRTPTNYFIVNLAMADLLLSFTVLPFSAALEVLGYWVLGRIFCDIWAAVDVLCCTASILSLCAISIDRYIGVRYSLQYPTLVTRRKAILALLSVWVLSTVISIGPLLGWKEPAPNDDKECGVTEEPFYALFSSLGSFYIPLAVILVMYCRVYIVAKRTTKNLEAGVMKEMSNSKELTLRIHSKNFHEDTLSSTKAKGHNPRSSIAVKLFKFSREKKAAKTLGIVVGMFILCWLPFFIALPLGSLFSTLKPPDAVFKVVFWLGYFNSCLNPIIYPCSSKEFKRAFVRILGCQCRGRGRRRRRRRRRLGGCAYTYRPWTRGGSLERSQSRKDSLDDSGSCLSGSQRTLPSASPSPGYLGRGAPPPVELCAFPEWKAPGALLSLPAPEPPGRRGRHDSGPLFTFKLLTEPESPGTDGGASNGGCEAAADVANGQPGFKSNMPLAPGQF
Sequence of Vasopressin V1B (P47901 whole entry): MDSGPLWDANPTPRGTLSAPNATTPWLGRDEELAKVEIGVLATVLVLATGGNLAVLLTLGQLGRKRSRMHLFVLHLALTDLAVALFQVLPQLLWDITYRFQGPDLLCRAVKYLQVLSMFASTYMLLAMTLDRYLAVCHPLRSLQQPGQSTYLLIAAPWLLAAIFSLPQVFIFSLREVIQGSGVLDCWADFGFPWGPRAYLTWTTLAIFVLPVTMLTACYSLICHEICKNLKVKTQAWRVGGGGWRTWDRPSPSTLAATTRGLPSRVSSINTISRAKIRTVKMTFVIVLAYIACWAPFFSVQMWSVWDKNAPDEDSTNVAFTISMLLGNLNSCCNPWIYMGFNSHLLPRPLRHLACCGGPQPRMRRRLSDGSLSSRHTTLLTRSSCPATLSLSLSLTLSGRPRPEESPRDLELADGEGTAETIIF
Sequence of Histamine H1 (P35367 whole entry): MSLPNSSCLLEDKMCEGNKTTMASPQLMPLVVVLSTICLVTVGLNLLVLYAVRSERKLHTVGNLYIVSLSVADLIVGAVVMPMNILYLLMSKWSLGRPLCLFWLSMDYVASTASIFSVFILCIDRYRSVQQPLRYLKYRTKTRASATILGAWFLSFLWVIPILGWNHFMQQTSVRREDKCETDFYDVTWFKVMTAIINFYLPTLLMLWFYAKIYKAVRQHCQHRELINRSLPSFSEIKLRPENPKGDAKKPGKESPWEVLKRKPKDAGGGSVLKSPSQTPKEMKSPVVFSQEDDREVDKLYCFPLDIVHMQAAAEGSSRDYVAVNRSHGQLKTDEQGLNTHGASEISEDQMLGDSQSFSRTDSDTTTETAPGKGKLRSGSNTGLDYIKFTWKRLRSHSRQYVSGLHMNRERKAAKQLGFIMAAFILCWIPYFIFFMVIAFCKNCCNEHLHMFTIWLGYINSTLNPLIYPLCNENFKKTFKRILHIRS
Sequence of Serotonin 5HT3 (P46098 24-478): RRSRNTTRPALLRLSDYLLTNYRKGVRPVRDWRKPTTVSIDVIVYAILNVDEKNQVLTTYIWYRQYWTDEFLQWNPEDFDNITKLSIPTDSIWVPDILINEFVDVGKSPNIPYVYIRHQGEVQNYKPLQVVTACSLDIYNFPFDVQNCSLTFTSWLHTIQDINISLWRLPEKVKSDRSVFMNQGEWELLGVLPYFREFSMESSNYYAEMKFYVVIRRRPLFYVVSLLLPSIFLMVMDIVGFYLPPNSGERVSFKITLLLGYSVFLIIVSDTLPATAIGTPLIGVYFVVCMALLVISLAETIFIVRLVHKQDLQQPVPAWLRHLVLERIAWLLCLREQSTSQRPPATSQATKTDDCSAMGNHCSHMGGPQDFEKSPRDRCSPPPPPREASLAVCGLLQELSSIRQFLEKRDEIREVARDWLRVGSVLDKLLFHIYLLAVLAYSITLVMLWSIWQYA
Sequence of Dopamine transporter (Q01959 whole entry): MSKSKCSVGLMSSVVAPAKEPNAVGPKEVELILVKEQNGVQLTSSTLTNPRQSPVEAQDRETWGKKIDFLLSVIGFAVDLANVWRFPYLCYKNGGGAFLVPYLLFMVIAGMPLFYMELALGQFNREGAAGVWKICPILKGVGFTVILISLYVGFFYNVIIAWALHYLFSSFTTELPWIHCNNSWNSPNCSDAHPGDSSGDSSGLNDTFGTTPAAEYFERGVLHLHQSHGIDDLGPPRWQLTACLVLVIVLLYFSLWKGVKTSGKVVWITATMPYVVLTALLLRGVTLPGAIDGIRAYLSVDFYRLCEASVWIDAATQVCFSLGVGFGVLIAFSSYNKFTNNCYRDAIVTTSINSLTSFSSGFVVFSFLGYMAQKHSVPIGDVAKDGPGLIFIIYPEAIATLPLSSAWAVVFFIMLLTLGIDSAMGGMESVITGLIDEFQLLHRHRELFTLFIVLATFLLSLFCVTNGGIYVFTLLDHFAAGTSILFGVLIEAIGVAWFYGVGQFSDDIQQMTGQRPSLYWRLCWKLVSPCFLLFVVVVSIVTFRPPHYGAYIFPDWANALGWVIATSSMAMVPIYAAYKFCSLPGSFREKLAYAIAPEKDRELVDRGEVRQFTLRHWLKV
Sequence of Sigma σ2 (Q5BJF2 whole entry): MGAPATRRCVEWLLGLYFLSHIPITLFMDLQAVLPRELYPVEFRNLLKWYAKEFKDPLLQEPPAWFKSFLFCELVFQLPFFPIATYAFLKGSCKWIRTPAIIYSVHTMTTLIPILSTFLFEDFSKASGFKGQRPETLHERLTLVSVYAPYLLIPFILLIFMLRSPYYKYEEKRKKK

As to `CN(CCSc1cc(F)c(OCC(N)=O)c(F)c1)S(=O)(=O)c1ccccc1` [K-2, {4-[2-(benzenesulfonyl-methyl-amino)-ethylsulfanil]-2,6-difluoro-phenoxy}-acetamide], the inhibition (in general, the share of the control response that was lost under treatment) at 0.1 µM at Adenosine A1 is 5.29%; at α1B-Adrenergic, 0%; at α2B-Adrenergic, 5.83%; at Dopamine D2 short it was 5.33%; at Dopamine transporter it was 0.29%; on GABA B, 1.9%. Besides, the inhibition at 0.1 µM turned out to be 6.53% at Histamine H1; 0.51% on Muscarinic M2; 0.61% at Neurokinin NK2; 9.32% at Serotonin 5HT2A; 1.57% on Serotonin 5HT3; 2.88% on Sigma σ1. Also, the values for the inhibition at 0.1 µM on Sigma σ2 and at Vasopressin V1B were 4.07% and 1.48%, respectively. Besides, the “Inhibition (%)” value in the assay on Glutamate (Kainate) was 1.68%; in assay [1], 0.57%; in [2] it was 8.46%; with K Channel KATP, 5.71%; in the assay on Leukotriene B4, 0.00%.
